Test results taken from US9980943B2, “Methods of treating muscular dystrophy” (BOARD OF REGENTS OF THE NEVADA SYSTEM OF HIGHER EDUCATION, …, priority 2013, dated 2018).

What was measured:
Format in all cases: cell-based, mouse
[1] = tested on: α7 integrin (LacZ reporter in α7βgal+/− myoblasts); assay: Myoblast α7+/LacZ integrin FDG assay (Burkin assay in myoblasts, 96-well); conditions: α7+/LacZ myoblasts, 96-well
[2] = tested on: α7 integrin (LacZ reporter in α7+/LacZ myotubes); assay: Myotube α7 integrin FDG assay (Burkin assay in myotubes, 96-well); conditions: myotubes
[3] = tested on: β-galactosidase in CMV-LacZ C2C12 myoblasts; assay: CMV-LacZ secondary screen in C2C12 myoblasts (β-Gal stabilizing assay); conditions: CMV-LacZ C2C12 myoblasts
Outline: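 CMV-LacZ C2C12 line (clonal, FDG-screened); myoblasts/myotubes dosed 0.5–40 μM (0.5, 1, 5, 10, 20, 40 μM); n=2 per point; β-gal stabilization read-out.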

[4] = tested on: β-galactosidase in CMV-LacZ C2C12 myotubes; assay: CMV-LacZ secondary screen in C2C12 myotubes (β-Gal stabilizing assay); conditions: C2C12 CMV-LacZ myotubes, fold relative to DMSO
Outline: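 β-gal stabilization was measured in C2C12 myoblasts or myotubes stably transfected with a CMV-driven LacZ construct, using the FDG β-gal assay. Compounds were tested in dose-response at 0.5, 1, 5, 10, 20 and 40 μM, with two replicates per point.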

For `O=C(NCc1ccccc1)c1csc(-c2cccnc2)n1` [MLS000860966-01], the “Burkin Assay in Myoblasts, signal relative to DMSO” value ([1]; 0.5 uM) was 0.8092, the “Burkin Assay in Myoblasts, signal relative to DMSO” value ([1]; 1 uM) was 0.9506 and the “Burkin Assay in Myoblasts, signal relative to DMSO” value ([1]; 5 uM) was 1.225. The “Burkin Assay in Myoblasts, signal relative to DMSO” value ([1]; 10 uM) was 1.126, the “Burkin Assay in Myoblasts, signal relative to DMSO” value ([1]; 20 uM) was 1.242 and the “Burkin Assay in Myoblasts, signal relative to DMSO” value ([1]; 40 uM) was 1.117. The “Burkin Assay in Myotubes, α7 integrin LacZ reporter signal relative to DMSO” value ([2]; 0.5 uM) was 0.9275, the “Burkin Assay in Myotubes, α7 integrin LacZ reporter signal relative to DMSO” value ([2]; 1 uM) was 0.8211 and the “Burkin Assay in Myotubes, α7 integrin LacZ reporter signal relative to DMSO” value ([2]; 5 uM) was 1.1137. For the same compound, the “Burkin Assay in Myotubes, α7 integrin LacZ reporter signal relative to DMSO” value ([2]; 10 uM) was 1.107, the “Burkin Assay in Myotubes, α7 integrin LacZ reporter signal relative to DMSO” value ([2]; 20 uM) was 1.06 and the “Burkin Assay in Myotubes, α7 integrin LacZ reporter signal relative to DMSO” value ([2]; 40 uM) was 0.8927. For the same compound, the “CMV-LACZ in Myoblasts (β-galactosidase activity relative to DMSO)” value ([3]; 0.5 uM) was 0.9370, the “CMV-LACZ in Myoblasts (β-galactosidase activity relative to DMSO)” value ([3]; 1 uM) was 1.0900 and the “CMV-LACZ in Myoblasts (β-galactosidase activity relative to DMSO)” value ([3]; 5 uM) was 0.7918. For the same compound, the “CMV-LACZ in Myoblasts (β-galactosidase activity relative to DMSO)” value ([3]; 10 uM) was 0.8424, the “CMV-LACZ in Myoblasts (β-galactosidase activity relative to DMSO)” value ([3]; 20 uM) was 0.6232 and the “CMV-LACZ in Myoblasts (β-galactosidase activity relative to DMSO)” value ([3]; 40 uM) was 0.7600. For the same compound, the “CMV-LACZ in Myotubes, signal relative to DMSO” value ([4]; 0.5 uM) was 0.8229, the “CMV-LACZ in Myotubes, signal relative to DMSO” value ([4]; 1 uM) was 1.0743 and the “CMV-LACZ in Myotubes, signal relative to DMSO” value ([4]; 5 uM) was 0.9632. The “CMV-LACZ in Myotubes, signal relative to DMSO” value ([4]; 10 uM) was 0.8601, the “CMV-LACZ in Myotubes, signal relative to DMSO” value ([4]; 20 uM) was 0.9190 and the “CMV-LACZ in Myotubes, signal relative to DMSO” value ([4]; 40 uM) was 0.7920.

With `CCOn1c(=O)c(-c2ccccc2)[n+]([O-])c2ccccc21` [MLS001197220-01] the “Burkin Assay in Myoblasts, signal relative to DMSO” value ([1]; 0.5 uM) was 1.2811, the “Burkin Assay in Myoblasts, signal relative to DMSO” value ([1]; 1 uM) was 1.286 and the “Burkin Assay in Myoblasts, signal relative to DMSO” value ([1]; 5 uM) was 1.843. For the same compound, the “Burkin Assay in Myoblasts, signal relative to DMSO” value ([1]; 10 uM) was 0.9218, the “Burkin Assay in Myoblasts, signal relative to DMSO” value ([1]; 20 uM) was 1.111 and the “Burkin Assay in Myoblasts, signal relative to DMSO” value ([1]; 40 uM) was 1.0836. For the same compound, the “Burkin Assay in Myotubes, α7 integrin LacZ reporter signal relative to DMSO” value ([2]; 0.5 uM) was 1.327, the “Burkin Assay in Myotubes, α7 integrin LacZ reporter signal relative to DMSO” value ([2]; 1 uM) was 1.3061 and the “Burkin Assay in Myotubes, α7 integrin LacZ reporter signal relative to DMSO” value ([2]; 5 uM) was 1.254. For the same compound, the “Burkin Assay in Myotubes, α7 integrin LacZ reporter signal relative to DMSO” value ([2]; 10 uM) was 1.004, the “Burkin Assay in Myotubes, α7 integrin LacZ reporter signal relative to DMSO” value ([2]; 20 uM) was 0.9 and the “Burkin Assay in Myotubes, α7 integrin LacZ reporter signal relative to DMSO” value ([2]; 40 uM) was 0.831. The “CMV-LACZ in Myoblasts (β-galactosidase activity relative to DMSO)” value ([3]; 0.5 uM) was 1.2028, the “CMV-LACZ in Myoblasts (β-galactosidase activity relative to DMSO)” value ([3]; 1 uM) was 1.1569 and the “CMV-LACZ in Myoblasts (β-galactosidase activity relative to DMSO)” value ([3]; 5 uM) was 0.9355. For the same compound, the “CMV-LACZ in Myoblasts (β-galactosidase activity relative to DMSO)” value ([3]; 10 uM) was 1.1383, the “CMV-LACZ in Myoblasts (β-galactosidase activity relative to DMSO)” value ([3]; 20 uM) was 0.9567 and the “CMV-LACZ in Myoblasts (β-galactosidase activity relative to DMSO)” value ([3]; 40 uM) was 1.2844. The “CMV-LACZ in Myotubes, signal relative to DMSO” value ([4]; 0.5 uM) was 0.8896, the “CMV-LACZ in Myotubes, signal relative to DMSO” value ([4]; 1 uM) was 0.9356 and the “CMV-LACZ in Myotubes, signal relative to DMSO” value ([4]; 5 uM) was 0.9682. For the same compound, the “CMV-LACZ in Myotubes, signal relative to DMSO” value ([4]; 10 uM) was 0.9289, the “CMV-LACZ in Myotubes, signal relative to DMSO” value ([4]; 20 uM) was 0.9659 and the “CMV-LACZ in Myotubes, signal relative to DMSO” value ([4]; 40 uM) was 1.0271.

In the case of `O=C(O)CC1(c2ccccc2)C(=O)c2ccccc2C1=O` [MLS000052969-01], the “Burkin Assay in Myoblasts, signal relative to DMSO” value ([1]; 0.5 uM) is reported as 1.25, the “Burkin Assay in Myoblasts, signal relative to DMSO” value ([1]; 1 uM) is reported as 1.352 and the “Burkin Assay in Myoblasts, signal relative to DMSO” value ([1]; 5 uM) is reported as 0.9646. The “Burkin Assay in Myoblasts, signal relative to DMSO” value ([1]; 10 uM) was 0.8356, the “Burkin Assay in Myoblasts, signal relative to DMSO” value ([1]; 20 uM) was 0.8292 and the “Burkin Assay in Myoblasts, signal relative to DMSO” value ([1]; 40 uM) was 0.7591. The “Burkin Assay in Myotubes, α7 integrin LacZ reporter signal relative to DMSO” value ([2]; 0.5 uM) was 0.9131, the “Burkin Assay in Myotubes, α7 integrin LacZ reporter signal relative to DMSO” value ([2]; 1 uM) was 1.058 and the “Burkin Assay in Myotubes, α7 integrin LacZ reporter signal relative to DMSO” value ([2]; 5 uM) was 0.9184. For the same compound, the “Burkin Assay in Myotubes, α7 integrin LacZ reporter signal relative to DMSO” value ([2]; 10 uM) was 0.876, the “Burkin Assay in Myotubes, α7 integrin LacZ reporter signal relative to DMSO” value ([2]; 20 uM) was 0.6621 and the “Burkin Assay in Myotubes, α7 integrin LacZ reporter signal relative to DMSO” value ([2]; 40 uM) was 0.5548. For the same compound, the “CMV-LACZ in Myoblasts (β-galactosidase activity relative to DMSO)” value ([3]; 0.5 uM) was 0.8950, the “CMV-LACZ in Myoblasts (β-galactosidase activity relative to DMSO)” value ([3]; 1 uM) was 1.0529 and the “CMV-LACZ in Myoblasts (β-galactosidase activity relative to DMSO)” value ([3]; 5 uM) was 0.9976. The “CMV-LACZ in Myoblasts (β-galactosidase activity relative to DMSO)” value ([3]; 10 uM) was 1.0444, the “CMV-LACZ in Myoblasts (β-galactosidase activity relative to DMSO)” value ([3]; 20 uM) was 1.1522 and the “CMV-LACZ in Myoblasts (β-galactosidase activity relative to DMSO)” value ([3]; 40 uM) was 0.6800. For the same compound, the “CMV-LACZ in Myotubes, signal relative to DMSO” value ([4]; 0.5 uM) was 0.9152, the “CMV-LACZ in Myotubes, signal relative to DMSO” value ([4]; 1 uM) was 1.1714 and the “CMV-LACZ in Myotubes, signal relative to DMSO” value ([4]; 5 uM) was 1.0651. For the same compound, the “CMV-LACZ in Myotubes, signal relative to DMSO” value ([4]; 10 uM) was 0.8406, the “CMV-LACZ in Myotubes, signal relative to DMSO” value ([4]; 20 uM) was 0.9800 and the “CMV-LACZ in Myotubes, signal relative to DMSO” value ([4]; 40 uM) was 0.9726.
